What was measured:
Test in all cases: relative viability (nuclei count vs DMSO), 5 days (fraction); higher = more cells survive
CUDC-101 + Trametinib = compound: C#Cc1cccc(Nc2ncnc3cc(OC)c(OCCCCCCC(=O)NO)cc23)c1 [CUDC-101] + CC(=O)Nc1cccc(-n2c(=O)n(C3CC3)c(=O)c3c(Nc4ccc(I)cc4F)n(C)c(=O)c(C)c32)c1 [Trametinib] (partner 0.02 µM)
Summary of the method: (§1)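 Lung cancer cell lines were seeded in 1536-well plates and dosed by pin tool the next day, with either a single drug or a fixed anchor-drug dose combined with five library-drug doses (not always all listed) spaced in √10 steps. Five days later, one step fixed the cells and stained their nuclei (final 0.05% Triton X-100, 1% formaldehyde, 1 ug/ml Hoechst), and nuclei were counted on 4× images. Relative viability is the nuclei count in treated wells divided by the count in vehicle wells, and each value is the median of duplicate plates.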

CUDC-101 + Navitoclax = compound: C#Cc1cccc(Nc2ncnc3cc(OC)c(OCCCCCCC(=O)NO)cc23)c1 [CUDC-101] + CC1(C)CCC(c2ccc(Cl)cc2)=C(CN2CCN(c3ccc(C(=O)NS(=O)(=O)c4ccc(N[C@H](CCN5CCOCC5)CSc5ccccc5)c(S(=O)(=O)C(F)(F)F)c4)cc3)CC2)C1 [Navitoclax] (partner 0.5 µM)
Summary of the method: as §1

Vandetanib + Dasatinib = compound: COc1cc2/c(=N/c3ccc(Br)cc3F)nc[nH]c2cc1OCC1CCN(C)CC1 [Vandetanib] + Cc1nc(Nc2ncc(C(=O)Nc3c(C)cccc3Cl)s2)cc(N2CCN(CCO)CC2)n1 [Dasatinib] (partner 0.075 µM)
Summary of the method: as §1

Vandetanib + Olaparib = compound: COc1cc2/c(=N/c3ccc(Br)cc3F)nc[nH]c2cc1OCC1CCN(C)CC1 [Vandetanib] + O=C(c1cc(Cc2n[nH]c(=O)c3ccccc23)ccc1F)N1CCN(C(=O)C2CC2)CC1 [Olaparib] (partner 8 µM)
Summary of the method: as §1

Cell Line | relative viability (CUDC-101 + Trametinib; first compound 0.01 µM) | relative viability (CUDC-101 + Trametinib; first compound 0.03162 µM) | relative viability (CUDC-101 + Trametinib; first compound 0.1 µM) | relative viability (CUDC-101 + Trametinib; first compound 0.3162 µM) | relative viability (CUDC-101 + Trametinib; first compound 1 µM) | relative viability (CUDC-101 + Navitoclax; first compound 0.01 µM) | relative viability (CUDC-101 + Navitoclax; first compound 0.03162 µM) | relative viability (CUDC-101 + Navitoclax; first compound 0.1 µM) | relative viability (CUDC-101 + Navitoclax; first compound 0.3162 µM) | relative viability (CUDC-101 + Navitoclax; first compound 1 µM) | relative viability (Vandetanib + Dasatinib; first compound 0.02 µM) | relative viability (Vandetanib + Dasatinib; first compound 0.06325 µM) | relative viability (Vandetanib + Dasatinib; first compound 0.2 µM) | relative viability (Vandetanib + Dasatinib; first compound 0.6325 µM) | relative viability (Vandetanib + Dasatinib; first compound 2 µM) | relative viability (Vandetanib + Olaparib; first compound 0.02 µM) | relative viability (Vandetanib + Olaparib; first compound 0.06325 µM) | relative viability (Vandetanib + Olaparib; first compound 0.2 µM) | relative viability (Vandetanib + Olaparib; first compound 0.6325 µM) | relative viability (Vandetanib + Olaparib; first compound 2 µM)
ChaGo-K-1 | 0.958 | 0.898 | 0.909 | 0.87 | 0.784 | 1.34 | 1.48 | 1.04 | 1.06 | 0.92 | 0.581 | 0.63 | 0.269 | 0.584 | 0.607 | 0.415 | 0.427 | 0.161 | 0.411 | 0.438
EBC-1 | – | – | – | – | – | 0.41 | 0.377 | 0.365 | 0.184 | 0.144 | – | – | – | – | – | 0.698 | 0.603 | 0.69 | 0.782 | 0.693
EKVX | 0.353 | 0.349 | 0.335 | 0.407 | 0.224 | 0.972 | 0.977 | 0.874 | 0.941 | 0.593 | 0.547 | 0.566 | 0.498 | 0.602 | 0.374 | 0.854 | 0.761 | 0.904 | 0.813 | 0.563
EMC-BAC-2 | 0.918 | 0.811 | 0.864 | 0.779 | 0.479 | 1.15 | 1.19 | 1.19 | 1.1 | 0.923 | 0.332 | 0.312 | 0.327 | 0.295 | 0.3 | 0.509 | 0.478 | 0.498 | 0.492 | 0.531
EPLC-272H | 0.279 | 0.258 | 0.26 | 0.265 | 0.229 | 1.42 | 1.2 | 1.15 | 0.871 | 0.59 | 0.301 | – | 0.415 | 0.352 | 0.321 | 0.969 | 0.526 | 1.19 | 0.854 | 0.49
H3255 | 0.596 | 0.536 | – | 0.445 | 0.209 | 0.688 | 0.435 | 0.174 | 0.126 | 0.0597 | 0.364 | 0.358 | 0.325 | 0.252 | 0.264 | 0.516 | 0.518 | 0.594 | 0.509 | 0.27
HARA | 0.417 | 0.487 | – | 0.356 | 0.235 | 1.13 | 1.16 | 1.09 | 1.14 | 0.837 | 0.305 | 0.264 | 0.239 | 0.237 | 0.303 | 0.624 | 0.821 | 0.681 | 0.867 | 0.883
HCC-15 | 0.396 | 0.382 | 0.385 | 0.399 | 0.262 | 0.689 | 0.69 | 0.762 | 0.678 | 0.566 | 0.583 | 0.572 | 0.632 | 0.639 | 0.606 | 0.72 | 0.677 | 0.782 | 0.713 | 0.722
HCC-44 | 1.04 | 1.08 | 1.04 | 1.05 | 1.03 | 0.836 | 0.933 | 0.877 | 1.06 | 0.827 | – | – | – | – | – | 0.914 | 0.944 | 0.948 | 0.973 | 1

Reference: the supplement of paper PMC10307832
